Activity calls are given as the source filed them. The calls are words filed in the database; no cut-off is given here.
Legend:
MIA PaCa-2 [1] = test: Antiproliferative activity against human MIAPaCa2 cells after 70 hrs by alamar blue assay; assay type: functional, cell-based; conditions: MIA PaCa-2, 70 h
A498 = test: Disruption of microtubule network in human A498 cells at 5 times antiproliferative IC50 after 1 to 12 hrs by immunofluorescence assay; assay type: cell-based
HUVEC [2] = test: Cytotoxicity against HUVEC assessed as reduction in cell viability after 70 hrs by alamar blue assay; assay type: cell-based; conditions: Homo sapiens
HBL-100 [3] = test: Antiproliferative activity against human HBL100 cells after 70 hrs by alamar blue assay; assay type: cell-based; conditions: HBL-100, 70 h
BEAS-2B [4] = test: Antiproliferative activity against human BEAS2B cells after 70 hrs by alamar blue assay; assay type: cell-based
HUVEC [5] = test: Antiproliferative activity against HUVEC after 70 hrs by alamar blue assay; assay type: cell-based; conditions: Homo sapiens
BEAS-2B [6] = test: Cytotoxicity against human BEAS2B cells assessed as reduction in cell viability after 70 hrs by alamar blue assay; assay type: cell-based
MIA PaCa-2 [7] = test: Cytotoxicity against human MIAPaCa2 cells assessed as reduction in cell viability after 70 hrs by alamar blue assay; assay type: cell-based; conditions: MIA PaCa-2, 70 h
HBL-100 [8] = test: Cytotoxicity against human HBL100 cells assessed as reduction in cell viability after 70 hrs by alamar blue assay; assay type: cell-based; conditions: HBL-100, 70 h
MIA PaCa-2 [9] = test: Antiproliferative activity against human MIAPaCa2 cells preincubated for 4 hrs followed by 0.6 J/cm2 light irradiation for 10 mins and measured after 70 hrs by alamar blue assay; assay type: functional, cell-based; conditions: MIA PaCa-2, light or radiation study
[10] = Selectivity ratio of IC50 for antiproliferative activity against human MIAPaCa2 cells under dark condition to IC50 for antiproliferative activity against human MIAPaCa2 cells under 0.6 J/cm2 light irradiation; assay type: functional, MIA PaCa-2

## O=S(=O)(CC#Cc1ccccc1C#CCO)c1c(F)c(F)c(F)c(F)c1F
MIA PaCa-2 [1]
  IC50: 3.9 µM

## Nc1ccn([C@@H]2O[C@H](CO)[C@@H](O)C2(F)F)c(=O)n1 [GEMCITABINE]
MIA PaCa-2 [1]
  IC50: 0.12 µM

## COc1cc2c(c(OC)c1OC)-c1ccc(OC)c(=O)cc1[C@@H](NC(C)=O)CC2
A498
  Activity: Active

## COc1cccc2c1C(=O)c1c(O)c3c(c(O)c1C2=O)C[C@@](O)(C(=O)CO)C[C@@H]3O[C@H]1C[C@H](N)[C@H](O)[C@H](C)O1 [DOXORUBICIN]
HUVEC [2]
  IC50: 0.48 µM
HBL-100 [3]
  IC50: 0.08 µM
BEAS-2B [4]
  IC50: 2.4 µM
HUVEC [5]
  IC50: 0.15 µM
BEAS-2B [6]
  IC50: 18.6 µM
MIA PaCa-2 [7]
  IC50: 3.1 µM
HBL-100 [8]
  IC50: 8.5 µM

## [N-]=[N+]=NCC#Cc1ccccc1C#CC[S+]([O-])c1c(F)c(F)c(F)c(F)c1F (configuration not stated)
MIA PaCa-2 [1]
  IC50: 2.4 µM

## COCCOCOCC#Cc1ncccc1C#CC[S+]([O-])c1c(F)c(F)c(F)c(F)c1F (configuration not stated)
MIA PaCa-2 [1]
  IC50: 0.8 µM

## CCOC(=O)c1ccc(C#CCO)c(C#CC[S+]([O-])c2c(F)c(F)c(F)c(F)c2F)c1 (configuration not stated)
MIA PaCa-2 [1]
  IC50: 1.6 µM

## CCCCC(=O)OCC#Cc1ncccc1C#CC[S+]([O-])c1c(F)c(F)c(F)c(F)c1F (configuration not stated)
MIA PaCa-2 [9]
  IC50: 0.5 µM
[10]
  Ratio IC50: 6
MIA PaCa-2 [1]
  IC50: 3 µM

## [O-][S+](CC#Cc1ccccc1)c1c(F)c(F)c(F)c(F)c1F (configuration not stated)
MIA PaCa-2 [1]
  IC50: 7.8 µM

Reference: ChEMBL document CHEMBL4196030, “Enediynes bearing polyfluoroaryl sulfoxide as new antiproliferative agents with dual targeting of microtubules and DNA” (Eur J Med Chem, 2018)
